From ChEMBL document CHEMBL1201862, “PubChem BioAssay data set” (2004)
Activity calls are given as the source filed them.

Legend:
[1] = Luminescence Cell-Based Dose Confirmation HTS to Identify Activators of 5'UTR Stem-Loop Driven Alpha-Synuclein mRNA Translation in H4 Neuroglioblastoma Cells. [Related pubchem assays: 1829 (Project Summary), 1814 (Primary HTS)]; format: functional
[2] = Luminescence Cell-Based Dose Response HTS to Identify Activators of Luciferase Translation or Activity in H4 […] Cells. [Related pubchem assays: 1829 (Project Summary), 1814 (Primary HTS)]; format: functional
[3] = biological target: Induced myeloid leukemia cell differentiation protein Mcl-1 (Homo sapiens, UniProt Q07820); format: functional
[4] = biological target: FAD-linked sulfhydryl oxidase ALR (Homo sapiens, UniProt P55789); test: inhibitors of human ALR sulfhydryl oxidase, dose response, biochemical, H2O2 detection, luminescence, cherry-pick (AID 493248)
Estrogen receptor beta = Estrogen receptor beta (Homo sapiens, UniProt Q92731);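 note: recombinant ER-beta bound to coactivator SRC1 peptide in presence of estradiol agonist; inhibitors block coactivator peptide binding and lower the FRET signal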
[5] = cytotoxicity toward NIH3T3 fibroblasts, dose response, counter-screen, cell-based, ATP luminescence, mouse fibroblasts (AID 2010); format: functional;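 note: cells exposed to compound for about 90 hours before reading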
[6] = inhibitors of intracellular T. cruzi replication, confirmation, NIH3T3 host cells, beta-gal luminescence (AID 2044); format: functional, cell-based;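 note: intracellular parasites grown in NIH/3T3 mouse fibroblasts as host cells; luminescent beta-galactosidase reporter signal from transgenic T. cruzi replicating inside host cells; inhibitors lower the luminescence signal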
[7] = biological target: T1, Apoptotic protease-activating factor 1 (Homo sapiens, UniProt O14727); format: functional
T1 sequence (O14727 whole entry): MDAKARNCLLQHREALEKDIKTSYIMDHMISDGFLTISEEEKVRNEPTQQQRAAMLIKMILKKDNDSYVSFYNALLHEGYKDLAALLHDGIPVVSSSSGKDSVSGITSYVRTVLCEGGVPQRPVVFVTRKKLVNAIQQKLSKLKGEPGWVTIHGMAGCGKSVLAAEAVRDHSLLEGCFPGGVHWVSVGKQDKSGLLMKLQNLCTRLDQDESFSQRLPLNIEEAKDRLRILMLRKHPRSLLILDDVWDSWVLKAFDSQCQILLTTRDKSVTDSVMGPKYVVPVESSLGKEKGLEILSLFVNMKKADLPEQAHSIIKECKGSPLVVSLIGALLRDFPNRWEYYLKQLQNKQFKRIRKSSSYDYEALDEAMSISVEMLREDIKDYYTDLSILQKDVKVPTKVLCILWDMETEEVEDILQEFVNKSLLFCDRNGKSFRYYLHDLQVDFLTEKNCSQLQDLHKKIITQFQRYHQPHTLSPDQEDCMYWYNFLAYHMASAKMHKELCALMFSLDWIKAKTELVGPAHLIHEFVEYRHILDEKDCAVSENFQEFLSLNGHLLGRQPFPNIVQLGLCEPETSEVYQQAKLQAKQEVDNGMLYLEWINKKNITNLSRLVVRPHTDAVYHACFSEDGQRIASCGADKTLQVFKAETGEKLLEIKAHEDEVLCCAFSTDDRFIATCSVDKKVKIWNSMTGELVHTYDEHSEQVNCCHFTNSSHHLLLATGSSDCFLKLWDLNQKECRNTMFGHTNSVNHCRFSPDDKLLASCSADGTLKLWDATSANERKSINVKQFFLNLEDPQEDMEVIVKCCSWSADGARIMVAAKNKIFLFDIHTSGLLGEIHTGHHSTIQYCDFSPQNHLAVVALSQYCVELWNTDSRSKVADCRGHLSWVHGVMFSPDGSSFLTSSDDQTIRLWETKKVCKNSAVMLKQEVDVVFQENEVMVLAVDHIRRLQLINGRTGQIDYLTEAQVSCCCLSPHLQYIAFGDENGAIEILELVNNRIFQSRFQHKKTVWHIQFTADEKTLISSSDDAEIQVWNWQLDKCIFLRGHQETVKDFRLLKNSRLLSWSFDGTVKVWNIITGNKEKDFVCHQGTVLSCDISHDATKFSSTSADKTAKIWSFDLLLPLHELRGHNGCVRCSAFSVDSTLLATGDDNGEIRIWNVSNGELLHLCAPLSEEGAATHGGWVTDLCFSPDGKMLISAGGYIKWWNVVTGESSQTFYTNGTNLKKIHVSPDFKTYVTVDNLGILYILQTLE

H4 = test: Luminescence Cell-Based Dose Response HTS to Identify Activators of 5'UTR Stem-Loop Driven Prion Protein mRNA Translation in H4 Neuroglioblastoma Cells. [Related pubchem assays: 1829 (Project Summary), 1814 (Primary HTS)]; format: functional; settings: Homo sapiens
[8] = cytotoxicity in HEK-293T cells, dose response, cytotoxicity control for BCR NF-kB inhibitor project, luminescence, B-cell screen hits (AID 489021); format: functional, cell-based;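 note: HEK-293T cells carrying an NF-kB luciferase reporter; cells exposed to compound for about 14 hours before viability readout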
[9] = test system: Streptococcus sp. 'group A'; test: growth inhibition of control SK(-) GAS strain, dose response, counter-screen for streptokinase expression inhibitor project, luminescence, kanamycin, BacTiterGlo, confirmation (AID 1900); format: functional, organism-based
Streptococcus = test: Group A Streptococcus viability loss, dose response, counter-screen for streptokinase expression inhibitor project, luminescence, BacTiterGlo (AID 1915); format: functional, organism-based;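 note: potency for reduction of bacterial viability or growth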
Streptokinase A = biological target: T2, Streptokinase A (Streptococcus pyogenes serotype M1, UniProt P10520); test: S. pyogenes streptokinase expression inhibitors, potency, dose response, plasminogen activation absorbance, OD405 (AID 1914); format: functional, Streptococcus pyogenes M1 GAS;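 note: secreted streptokinase activity via plasminogen activation per viability signal from cell pellet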
T2 sequence (P10520 whole entry): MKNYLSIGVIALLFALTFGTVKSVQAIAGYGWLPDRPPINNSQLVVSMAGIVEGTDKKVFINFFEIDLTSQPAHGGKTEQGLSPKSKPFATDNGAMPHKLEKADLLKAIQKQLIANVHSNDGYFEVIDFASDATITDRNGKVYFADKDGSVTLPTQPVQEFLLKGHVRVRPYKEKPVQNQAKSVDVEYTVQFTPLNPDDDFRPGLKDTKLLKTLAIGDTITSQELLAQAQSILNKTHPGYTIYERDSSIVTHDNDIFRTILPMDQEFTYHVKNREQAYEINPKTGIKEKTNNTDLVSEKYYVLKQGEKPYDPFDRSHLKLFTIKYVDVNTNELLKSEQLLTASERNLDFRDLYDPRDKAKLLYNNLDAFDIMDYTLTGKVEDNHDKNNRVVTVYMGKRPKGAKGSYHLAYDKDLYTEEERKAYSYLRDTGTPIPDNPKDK

Cytochrome P450 1A2 = biological target: T3, Cytochrome P450 1A2 (Homo sapiens, UniProt P05177);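 note: PubChem cytochrome P450 panel assay, CYP1A2 panel member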
T3 sequence (P05177 whole entry): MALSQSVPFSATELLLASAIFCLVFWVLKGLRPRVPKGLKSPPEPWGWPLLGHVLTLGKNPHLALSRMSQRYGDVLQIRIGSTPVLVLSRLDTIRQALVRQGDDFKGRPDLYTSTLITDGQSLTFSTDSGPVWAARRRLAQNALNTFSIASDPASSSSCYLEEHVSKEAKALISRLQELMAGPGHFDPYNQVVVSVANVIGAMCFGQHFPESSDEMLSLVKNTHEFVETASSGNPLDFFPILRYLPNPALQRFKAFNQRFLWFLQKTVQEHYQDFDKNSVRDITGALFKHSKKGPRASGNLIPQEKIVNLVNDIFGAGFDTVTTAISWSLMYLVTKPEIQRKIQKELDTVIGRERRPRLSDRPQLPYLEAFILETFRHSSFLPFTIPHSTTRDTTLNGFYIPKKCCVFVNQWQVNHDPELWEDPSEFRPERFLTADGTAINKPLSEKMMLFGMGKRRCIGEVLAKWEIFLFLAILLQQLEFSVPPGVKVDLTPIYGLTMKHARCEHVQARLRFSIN

Cytochrome P450 3A4 = Cytochrome P450 3A4 (Homo sapiens, UniProt P08684);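 note: CYP3A4 tested as one member of a cytochrome P450 panel screen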
[10] = biological target: T4, Histone-lysine N-methyltransferase NSD2 (Homo sapiens, UniProt O96028); format: biochemical
T4 sequence (O96028 whole entry): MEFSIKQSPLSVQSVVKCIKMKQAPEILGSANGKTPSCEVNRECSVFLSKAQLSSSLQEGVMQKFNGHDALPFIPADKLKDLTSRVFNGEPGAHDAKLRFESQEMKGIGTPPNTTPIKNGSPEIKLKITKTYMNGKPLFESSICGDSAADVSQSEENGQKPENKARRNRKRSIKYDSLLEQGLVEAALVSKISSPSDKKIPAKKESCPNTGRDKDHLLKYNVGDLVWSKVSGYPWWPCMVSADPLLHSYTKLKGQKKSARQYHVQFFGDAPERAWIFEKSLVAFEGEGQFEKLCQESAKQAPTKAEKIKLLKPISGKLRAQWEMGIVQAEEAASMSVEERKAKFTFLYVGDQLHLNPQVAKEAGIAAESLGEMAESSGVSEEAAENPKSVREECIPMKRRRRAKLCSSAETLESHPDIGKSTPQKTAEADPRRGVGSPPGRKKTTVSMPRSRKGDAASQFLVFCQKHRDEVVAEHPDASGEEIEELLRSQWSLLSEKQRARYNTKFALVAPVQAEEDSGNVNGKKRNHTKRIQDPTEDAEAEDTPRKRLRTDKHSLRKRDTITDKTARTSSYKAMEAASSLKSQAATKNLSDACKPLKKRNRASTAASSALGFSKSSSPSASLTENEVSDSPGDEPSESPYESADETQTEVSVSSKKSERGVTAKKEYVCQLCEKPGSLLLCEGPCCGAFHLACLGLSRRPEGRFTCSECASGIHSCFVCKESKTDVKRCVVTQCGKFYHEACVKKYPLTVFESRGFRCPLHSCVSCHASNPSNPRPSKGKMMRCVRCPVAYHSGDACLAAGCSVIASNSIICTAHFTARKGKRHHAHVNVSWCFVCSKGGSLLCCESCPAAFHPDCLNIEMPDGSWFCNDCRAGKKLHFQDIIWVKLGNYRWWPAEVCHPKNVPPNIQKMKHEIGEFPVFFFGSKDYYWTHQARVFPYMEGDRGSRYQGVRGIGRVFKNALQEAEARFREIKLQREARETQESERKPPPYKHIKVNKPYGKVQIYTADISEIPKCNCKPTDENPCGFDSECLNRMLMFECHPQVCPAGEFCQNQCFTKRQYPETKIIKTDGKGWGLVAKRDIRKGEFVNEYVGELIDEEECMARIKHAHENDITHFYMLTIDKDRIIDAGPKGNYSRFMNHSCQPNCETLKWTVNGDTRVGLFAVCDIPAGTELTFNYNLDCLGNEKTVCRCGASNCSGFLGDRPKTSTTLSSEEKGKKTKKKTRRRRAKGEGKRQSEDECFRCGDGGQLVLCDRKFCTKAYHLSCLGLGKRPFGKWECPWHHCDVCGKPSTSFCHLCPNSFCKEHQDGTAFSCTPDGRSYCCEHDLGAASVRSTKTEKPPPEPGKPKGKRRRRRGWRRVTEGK

Chain of Estrogen receptor beta (Q92731 whole entry): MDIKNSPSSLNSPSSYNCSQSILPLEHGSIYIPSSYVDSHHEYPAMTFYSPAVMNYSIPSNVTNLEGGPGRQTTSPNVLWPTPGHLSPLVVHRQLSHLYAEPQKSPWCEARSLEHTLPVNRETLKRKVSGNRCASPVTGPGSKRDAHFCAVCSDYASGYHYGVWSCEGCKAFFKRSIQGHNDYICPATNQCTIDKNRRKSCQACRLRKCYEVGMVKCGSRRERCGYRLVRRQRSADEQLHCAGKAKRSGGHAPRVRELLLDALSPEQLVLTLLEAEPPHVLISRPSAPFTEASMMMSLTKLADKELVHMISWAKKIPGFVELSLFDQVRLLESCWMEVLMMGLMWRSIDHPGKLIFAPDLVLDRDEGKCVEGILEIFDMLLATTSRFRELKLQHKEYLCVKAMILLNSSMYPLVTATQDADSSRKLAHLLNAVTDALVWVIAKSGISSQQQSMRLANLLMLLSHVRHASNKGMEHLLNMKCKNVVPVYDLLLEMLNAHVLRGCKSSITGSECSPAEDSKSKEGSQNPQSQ
Chain of Induced myeloid leukemia cell differentiation protein Mcl-1 (Q07820 whole entry): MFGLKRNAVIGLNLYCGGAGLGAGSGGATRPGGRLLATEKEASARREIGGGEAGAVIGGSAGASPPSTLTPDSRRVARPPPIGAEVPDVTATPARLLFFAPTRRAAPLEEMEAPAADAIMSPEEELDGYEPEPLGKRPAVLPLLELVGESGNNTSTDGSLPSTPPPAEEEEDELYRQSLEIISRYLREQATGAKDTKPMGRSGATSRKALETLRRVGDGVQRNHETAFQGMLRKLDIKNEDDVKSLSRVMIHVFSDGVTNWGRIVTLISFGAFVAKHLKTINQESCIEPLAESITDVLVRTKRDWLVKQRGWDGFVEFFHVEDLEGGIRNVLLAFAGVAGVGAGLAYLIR
Chain of FAD-linked sulfhydryl oxidase ALR (P55789 whole entry): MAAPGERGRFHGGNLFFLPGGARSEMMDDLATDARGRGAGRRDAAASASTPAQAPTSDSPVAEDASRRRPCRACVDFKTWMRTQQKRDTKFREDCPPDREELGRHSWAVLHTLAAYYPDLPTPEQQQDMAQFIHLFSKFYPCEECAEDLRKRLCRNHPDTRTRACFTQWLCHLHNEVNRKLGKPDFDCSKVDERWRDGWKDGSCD
Chain of Cytochrome P450 3A4 (P08684 whole entry): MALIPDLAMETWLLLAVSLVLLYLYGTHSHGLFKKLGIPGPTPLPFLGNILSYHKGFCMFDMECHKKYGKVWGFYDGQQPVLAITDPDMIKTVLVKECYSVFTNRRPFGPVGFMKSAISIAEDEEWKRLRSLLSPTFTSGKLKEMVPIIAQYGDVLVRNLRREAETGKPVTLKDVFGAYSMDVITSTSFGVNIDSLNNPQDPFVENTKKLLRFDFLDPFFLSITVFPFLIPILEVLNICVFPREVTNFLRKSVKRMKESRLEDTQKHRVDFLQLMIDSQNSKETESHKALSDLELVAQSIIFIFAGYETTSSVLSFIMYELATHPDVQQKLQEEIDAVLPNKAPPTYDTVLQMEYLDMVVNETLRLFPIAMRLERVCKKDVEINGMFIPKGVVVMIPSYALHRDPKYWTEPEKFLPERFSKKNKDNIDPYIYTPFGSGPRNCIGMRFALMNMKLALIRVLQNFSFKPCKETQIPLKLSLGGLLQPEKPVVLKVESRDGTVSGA

Structure (SMILES): CCOC(=O)C(=O)N(Nc1ccc(C)cc1)c1ccc(C)cc1
- EC50 [1]: 7.04 µM (active)
- EC50 [2]: 82.6 µM (active)

Structure (SMILES): COc1cc(/C=N/NC(=O)c2cc(-c3ccco3)nc3ccccc23)cc(OC)c1O
- IC50 [3]: 8.35 µM (active)
- AC50 [4]: 0.13 µM (active)

Structure (SMILES): CC(=O)Nc1ccc(N2CCN(C(C)=O)CC2)cc1
- IC50 (Estrogen receptor beta): > 50 µM (not active)

Structure (SMILES): CCCc1cc(=O)oc2c3c(c4c(c12)OC(C)(C)C=C4)O[C@H](C)[C@@H](C)[C@@H]3O [CALANOLIDE A]
- EC50 [5]: 4.87 µM (active)
- EC50 [6]: 2.28 µM (active)
- IC50 [7]: 20.3 µM (active)

Structure (SMILES): Cc1ccc2nc(-c3ccc(NC(=O)CN4CCN(c5ccccn5)CC4)cc3)sc2c1
- EC50 (H4): 44.3 µM (active)
- EC50 [2]: 9.19 µM (active)

Structure (SMILES): CCN(CC(=O)Nc1c(F)cccc1F)C(=O)c1cc(S(=O)(=O)N2CCOCC2)ccc1N1CCCC1
- IC50 [8]: > 80 µM (inactive)

Structure (SMILES): Brc1ccc(C2Nc3cccc4cccc(c34)N2)s1
- IC50 [3]: 9.46 µM (active)

Structure (SMILES): CC1CCN(c2ccc(-c3ccc(NC(=O)c4ccco4)cc3)nn2)CC1
- EC50 [1]: 18.6 µM (active)
- EC50 (H4): 120 µM (active)
- EC50 [9]: > 150 µM (not active)
- EC50 [2]: > 120 µM (not active)
- EC50 (Streptococcus): > 150 µM (not active)
- EC50 (Streptokinase A): > 150 µM (not active)

Structure (SMILES): Nc1nc(CSc2ncccn2)nc(Nc2ccccc2)n1
- EC50 [1]: 3.07 µM (active)
- EC50 [2]: 0.504 µM (active)

Structure (SMILES): COC(=O)c1ccccc1-c1ccc(/C=C2\C(=O)N(c3ccccc3)N=C2c2ccccc2)o1
- AC50 (Cytochrome P450 1A2): 5.01 µM (inconclusive)
- IC50 [7]: 28.9 µM (active)
- AC50 (Cytochrome P450 3A4): 2.82 µM (inconclusive)

Structure (SMILES): COc1ccc(S(=O)(=O)N2CCN(CC(=O)c3ccc(O)c(O)c3)CC2)cc1
- AC50 [10]: 5.33 µM (active)
- AC50 [4]: 2.33 µM (active)

Structure (SMILES): COc1ccc(C(=O)N/N=C/c2sc(N3CCOCC3)nc2-c2ccccc2)cc1OC
- IC50 [8]: 63.1 µM (inactive)

Structure (SMILES): COC(=O)c1ccc(CC(=O)c2c(C)cc(O)cc2O)o1
- IC50 (Estrogen receptor beta): 15 µM (active)

Structure (SMILES): CC(=O)Oc1ccc2occ(-c3ccccc3)c2c1
- EC50 [1]: 13.8 µM (active)
- EC50 (H4): 14 µM (active)
- EC50 [2]: 16.7 µM (active)

Structure (SMILES): CCCCCc1ccc(OCCC[n+]2ccccc2)c(CCCCC)c1
- EC50 [5]: > 60 µM (not active)
- EC50 [6]: 0.122 µM (active)
- IC50 [7]: 84.9 µM (active)

Structure (SMILES): COc1ccc(C2=NCc3nnc(C)n3-c3ccc(Cl)cc32)cc1Cl
- IC50 [8]: > 80 µM (inactive)

Structure (SMILES): O=C(COc1ccccc1Cl)c1ccc2c(c1)CCCC2
- EC50 (H4): 10 µM (active)
- EC50 [2]: 16.7 µM (active)

Structure (SMILES): COc1ccc(/C=C/c2ccccc2)cc1[C@H]1[C@H]2C=CC[C@@H](C)[C@@H]2C(=O)N1Cc1ccccc1
- IC50 [8]: > 80 µM (inactive)
